Experimental data: US11479536B1 (King Abdulaziz University, priority 2022, dated 2022)
Values joined by “and” are separate entries in the source; they are usually repeats but may differ in a detail not shown here. Identical values can stand only once.

Legend:
[1] = test system: T47D spheroids; experiment: Reactive oxygen species (CellROX) assay, T47D spheroids; assay type: cell-based, human; details: 48 h treatment, CellROX Green
Protocol: (§1) The CELLROX (Invitrogen) assay was used to measure the level of reactive oxygen species (ROS) in live cells. […] The technique was used to investigate the capability of tested compounds to induce intracellular ROS. After forming the spheroids for 48 hours and treating them for additional 48 hours with MAK compound, spheroids were incubated in culture medium with 500 nM CellROX for 60 minutes at 37° C. in presence of 5% CO2, and the samples were immediately analyzed on flow cytometry using 488-nm excitation for the CellROX® Green.

[2] = test system: MCF7 spheroids; experiment: Mitochondrial membrane potential assay (JC-1), MCF7 spheroids; assay type: cell-based, human; details: 48 h post treatment at IC50, control 18.01±0.58%
Protocol: (§2) The mitochondrial membrane potential was investigated in response to the treatment with MAK compounds. This assay depends on the measurement of the aggregate fluorescence for Tetraethylbenzimidazolylcarbocyanine iodide (JC-1). This cationic dye accumulates in the energized mitochondria, and the increase in aggregate fluorescence indicates mitochondrial […] while the reduction indicates the depolarization state.
(§3) After growing the cells and treating them with MAK compound for 48 hours, 2 μM of JC-1 final concentration was added and the mixture was incubated for 1 hour at 37° C. in presence of 5% CO2. Then, the samples were analyzed using flow cytometry. Mean values and standard deviation of replicates were calculated in comparison to the control group.

[3] = test system: MCF7 spheroids; experiment: Live and dead assay of tumor spheroids, MCF7; assay type: cell-based, human; details: 48 h post treatment, control 10.33±2.40%
Protocol: (§4) The Live/Dead assay contains a mixture of two staining fluorescent dyes that label live and dead cells to enable differentiation between them. The cell viability of the cells in response to the treatment with MAK compounds was examined. The cells were grown for 48 hours and treated with MAK compound for additional 48 hours, then Cytox RED solution reagent was added. After incubation at 37° C. under 5% CO2 for 1 hour, the samples were immediately analyzed by flow cytometry. Mean values and standard deviation of replicates were calculated in comparison to the control group.

[4] = test system: T47D spheroids; experiment: Mitochondrial membrane potential assay (JC-1), T47D spheroids; assay type: cell-based, human; details: 48 h post treatment at IC50, control 15.67±2.05%
Protocol: as §2, §3

[5] = test system: human skin fibroblasts (HSF); experiment: Cytotoxicity on human skin fibroblasts (SRB method); assay type: cell-based; details: HSF, SRB, 72 h
Protocol: In addition to have a good physicochemical profile, it is important for a studied lead to differentiate between cancer cells and highly proliferating non-cancerous cells. Therefore, we assessed compounds MAK-1 and MAK-6 for both the in silico and in vitro physicochemical characteristics as well as for cytotoxic effect on human skin fibroblasts (SKF) cell lines. Cytotoxicity was determined using Sulforhodamine B (SRB) method. Exponentially growing human skin fibroblast cells (Nawah Scientific, Cairo, Egypt) were collected using 0.25% Trypsin-EDTA and were then seeded in 96-well plates at a density of 1000-2000 cells/well in 10% FBS and penicillin/streptomycin supplemented RPMI-1640 medium. After 24 h, cells were treated with different concentrations of test compounds and incubated for 72 h at 37° C. in a humidified atmosphere containing 5% CO2. Next, the cells were fixed by adding trichloroacetic acid (TCA, 10% final conc. in wells) directly to the wells and incubated for 1 h at 4° C., then cells were washed with distilled water 5 times to remove excess TCA, media, serum proteins, and metabolites, followed by air drying. After that, the fixed cells were stained with 0.4% SRB dissolved in 1% acetic acid for 10 min at room temperature, and excess stain was removed by quickly rinsing with 1% acetic acid. The residual acetic acid was removed completely by air drying the plates for 24 h, and the dye was solubilized with Tris buffer (pH=7.4, 10 mM) for 5 min on a shaker at 1600 rpm. The optical density (OD) of each well was measured spectrophotometrically at 564 nm with an ELISA microplate reader (ChroMate-4300, FL, USA). The IC50 values were calculated according to the equation for Boltzman sigmoidal concentration—response curve using the nonlinear regression fitting models (Graph Pad, Prism Version 5).

[6] = target: T1, AMPK (A1/B1/G2) (Homo sapiens, UniProt Q13131+Q9UGJ0+Q9Y478); experiment: Cell-free AMPK inhibition assay, AMPK (A1/B1/G2) Kinase Enzyme system; assay type: biochemical; details: recombinant full-length human AMPK
T1 construct: This system includes a recombinant full-length human AMPK enzyme; purchased Promega
T1 sequence (Q13131 whole entry): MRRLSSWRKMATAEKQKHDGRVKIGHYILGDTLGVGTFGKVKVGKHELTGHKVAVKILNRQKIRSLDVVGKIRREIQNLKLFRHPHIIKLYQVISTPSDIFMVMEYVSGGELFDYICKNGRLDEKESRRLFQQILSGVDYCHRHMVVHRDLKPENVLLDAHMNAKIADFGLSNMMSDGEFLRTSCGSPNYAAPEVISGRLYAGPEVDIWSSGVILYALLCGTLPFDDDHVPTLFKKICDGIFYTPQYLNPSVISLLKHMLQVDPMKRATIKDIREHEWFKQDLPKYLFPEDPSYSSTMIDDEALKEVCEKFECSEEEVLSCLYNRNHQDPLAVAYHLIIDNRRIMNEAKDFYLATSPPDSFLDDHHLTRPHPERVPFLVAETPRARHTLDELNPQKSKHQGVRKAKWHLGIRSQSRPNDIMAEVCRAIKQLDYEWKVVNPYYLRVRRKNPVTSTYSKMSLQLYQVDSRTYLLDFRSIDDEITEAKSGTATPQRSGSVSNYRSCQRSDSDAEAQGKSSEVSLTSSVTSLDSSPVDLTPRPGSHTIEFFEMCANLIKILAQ
T1 sequence (Q9Y478 whole entry partner): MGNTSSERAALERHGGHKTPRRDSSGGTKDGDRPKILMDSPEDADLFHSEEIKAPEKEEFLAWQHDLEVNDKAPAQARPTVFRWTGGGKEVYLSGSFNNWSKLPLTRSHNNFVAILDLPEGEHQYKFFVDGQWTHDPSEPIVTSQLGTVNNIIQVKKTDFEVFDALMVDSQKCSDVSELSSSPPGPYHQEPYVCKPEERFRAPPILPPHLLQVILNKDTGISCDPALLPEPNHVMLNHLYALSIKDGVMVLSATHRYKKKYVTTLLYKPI
T1 sequence (Q9UGJ0 whole entry partner): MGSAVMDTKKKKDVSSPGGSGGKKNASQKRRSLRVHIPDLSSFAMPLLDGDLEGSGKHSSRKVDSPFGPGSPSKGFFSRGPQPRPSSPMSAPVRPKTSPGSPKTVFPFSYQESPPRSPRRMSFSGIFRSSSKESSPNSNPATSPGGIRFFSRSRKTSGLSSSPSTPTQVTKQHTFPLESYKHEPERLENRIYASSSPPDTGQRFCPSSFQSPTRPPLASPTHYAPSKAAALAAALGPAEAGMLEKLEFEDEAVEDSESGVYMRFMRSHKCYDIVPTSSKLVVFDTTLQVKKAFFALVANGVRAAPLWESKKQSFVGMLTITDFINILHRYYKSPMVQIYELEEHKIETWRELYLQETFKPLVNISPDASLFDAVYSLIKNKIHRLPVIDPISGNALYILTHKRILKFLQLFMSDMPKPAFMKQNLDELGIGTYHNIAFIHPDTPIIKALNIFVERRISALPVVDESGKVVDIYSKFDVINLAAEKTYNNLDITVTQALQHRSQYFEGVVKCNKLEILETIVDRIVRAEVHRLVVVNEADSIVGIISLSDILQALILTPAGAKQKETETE
Protocol: The inhibitory effect of serial concentrations of MAK compounds on AMPK Kinase activity was investigated using the highly sensitive AMPK (A1/B1/G2) Kinase Enzyme assay system (Promega, Madison Wis. USA). This system includes a recombinant full-length human AMPK enzyme and a substrate for the enzyme. The experiment was conducted according to the manufacturer's instructions in the provided protocol. Mean values of replicates were calculated in comparison to the control group.

[7] = test system: T47D spheroids; experiment: Live and dead assay of tumor spheroids, T47D; assay type: cell-based, human; details: 48 h post treatment, control 2.60±0.31%
Protocol: as §4

[8] = test system: T47D cell line; experiment: Cytotoxic assay (MTT) in monolayer model, T47D; assay type: cell-based; details: Homo sapiens, 48 h, read-out: IC50 cytotoxic assay against T47D, monolayer
Protocol: (§5) 1×10^6 cells of the human breast cancer cell lines MCF7 and T47D were seeded and grown at 37° C. with 5% CO2, in a Dulbecco's Modified Eagle Medium (DMEM) with 10% fetal bovine serum (Sigma). The cells were maintained until they reached the confluence over 90%. Then, the cells were subjected to the different treatment conditions before performing the assays.
(§6) The cytotoxic effects of MAK compounds were assessed against MCF7 and T47D cell lines using MTT cell viability assay. The cells were treated for 48 hours with different concentrations of each MAK compound and the control cells were subjected to the vehicle (0.1% DMSO). Then, 10% of 5 mg/mL MTT was added to each well containing treated or control cells, and mixture was incubated at 37° C. for 3 hours. After that, the MTT-containing media was replaced with 100 μL DMSO and incubated for 10 minutes at room temperature before measuring the absorbance for each well at 570 nm. According to the measured absorbance, the IC50 was calculated for each compound. All the experiments were performed in biological and experimental replicates.

[9] = test system: MCF7 spheroids; experiment: Cytotoxicity assay (MTT) in spheroid culture, MCF7; assay type: cell-based, human
Protocol: (§7) 1×10^4 cells of each cell line (MCF7 and T47D) were seeded into ultra-low attachment 96 well plate at 37° C. and grown for 48 hours in DMEM media to result in the formation of spheroids. Then, the cells were subjected to the different treatment conditions before performing the assays.
as §6

[10] = test system: T47D spheroids; experiment: Cytotoxicity assay (MTT) in spheroid culture, T47D; assay type: cell-based, human
Protocol: as §7, §6

[11] = test system: MCF7 spheroids; experiment: Reactive oxygen species (CellROX) assay, MCF7 spheroids; assay type: cell-based, human; details: 48 h treatment, CellROX Green
Protocol: as §1

[12] = test system: MCF7 cell line; experiment: Cytotoxic assay (MTT) in monolayer model, MCF7; assay type: cell-based; details: Homo sapiens, 48 h, read-out: IC50 MCF-7 cell line inhibition, monolayer
Protocol: as §5, §6

[13] = test system: MCF7 cell lines; experiment: Cytotoxic assays of KAC-12 on breast cancer MCF7 cell lines; assay type: cell-based, human
[14] = test system: AMPK (phospho-protein); details: concentration not given; cited from earlier work

## COc1cccc(C(=O)Nc2cccnc2CC(=O)NCc2ccccc2)c1
[1]
  ROS level, treatment vs control: 30%
[2]
  depolarized cells (mitochondrial membrane), mean±SEM: 34.00±0.87%
[3]
  dead rate (dead cells), mean±SEM: 36.48±0.39%
[4]
  depolarized cells (mitochondrial membrane), mean±SEM: 36.77±0.65%
[5]
  safety to normal cells (human skin fibroblasts): highly safe
[6]
  IC50: 5.8 nM
[7]
  dead rate (dead cells), mean±SEM: 32.10±0.56%
[8]
  IC50: 97 nM
[9]; Homo sapiens, MCF7, 3D spheroid model, 48 h, MTT
  IC50: 19600 ± 525 nM
[9]; MCF7 spheroids treated at IC50 for 48 h, vs control
  reduction of spheroid size: noticeable reduction
[10]; Homo sapiens, T47D, 3D spheroid model, 48 h, MTT
  IC50: 3720 ± 30 nM
[10]; T47D spheroids treated at IC50 for 48 h, vs control
  reduction of spheroid size: noticeable reduction
[11]
  ROS level, treatment vs control: 25%
[12]
  IC50: 148 nM

## O=C(Cc1ccc(NC(=O)c2cccc(Cl)c2)cc1)NCc1ccccc1 [KAC-12]
[13]
  IC50: 47700 nM
[14]
  downregulation of the activated AMPK signal (phosphoprotein): 15% and 13%

## COc1ccc(C(=O)Nc2ccc(CC(=O)NCc3ccccc3)cc2)cc1OC [MAK-2, N-(4-(2-(benzylamino)-2-oxoethyl)phenyl)-3,4-dimethoxybenzamide]
other
  melting point: 215 °C
[12]
  IC50: 6 nM

## O=C(Cc1ccc(NC(=O)c2cccc(OCCN3CCOCC3)c2)cc1)NCc1ccccc1 [MAK-3, N-(4-(2-(benzylamino)-2-oxoethyl)phenyl)-3-(2-morpholinoethoxy)benzamide]
[8]
  IC50: 1 nM

## COc1ccc(C(=O)Nc2ccc(CC(=O)NCc3ccccc3)cc2)cc1Cl [MAK-4, N-(4-(2-(benzylamino)-2-oxoethyl)phenyl)-3-chloro-4-methoxybenzamide]
other
  melting point: 186 °C
[12]
  IC50: 225 nM

## O=C(Cc1ccc(NC(=O)c2ccc(OCCN3CCOCC3)c(Cl)c2)cc1)NCc1ccccc1 [MAK-5, N-(4-(2-(benzylamino)-2-oxoethyl)phenyl)-3-chloro-4-(2-morpholinoethoxy)benzamide]
other
  melting point: 147 °C

## O=C(Cc1ccc(NC(=O)c2cncc(Cl)c2)cc1)NCc1ccccc1 [MAK-9, N-(4-(2-(benzylamino)-2-oxoethyl)phenyl)-5-chloronicotinamide]
other
  melting point: 231 °C

## O=C(Cc1ccc(NC(=O)c2ccc(Cl)o2)cc1)NCc1ccccc1 [MAK-10, N-(4-(2-(benzylamino)-2-oxoethyl)phenyl)-5-chlorofuran-2-carboxamide]
other
  melting point: 217 °C
[12]
  IC50: 225 nM
